Measured values published in US20120121707A1, “Tolbutamide Particle And Preparing Method Thereof And Method Of Reducing A Blood Glucose” (National Taiwan University, priority 2010, published 2012).

Legend:
[1] = Particle size distribution analysis of tolbutamide particles; assay type: physicochemical
Description: (§1) In the embodiments 1 to 4, the usage amount of the bulk drug of tolbutamide is in a range of 2 to 5 gram, and the other operation conditions, e.g. the pressures and the temperature of mixing, the temperatures before and after the expansion and the particle sizes of the tolbutamide micro-particles, are listed in Table 1 below.
as §1, with “embodiments 5” for “embodiments 1”, “to 8,” for “to 4,”, “Table 2” for “Table 1”
FIG. 1A is the schematic diagram showing the distribution and the cumulative distribution of the particle sizes for the bulk drug of tolbutamide, wherein the average particle size is 89.4 micron. FIG. 1B is the schematic diagram showing the distribution and the cumulative distribution of the particle sizes for the tolbutamide micro-particles obtained by using the method of the rapid expansion of supercritical solution (RESS) in the fourth embodiment. FIG. 1C is the schematic diagram showing the distribution and the cumulative distribution of the particle sizes for the tolbutamide micro-particles obtained by using the method of RESS with solid cosolvent (RESS-SC) in the eighth embodiment. […]

[2] = cited from earlier work

Row | Compound | average particle size ([1]; Table 1, RESS method, supercritical CO2, no cosolvent, bulk drug as comparison) [μm] | average particle size ([1]; text on FIGS. 1A-1D) [micron] | solubility in ethanol and chloroform ([2]; ethanol and chloroform) | solubility in water ([2]; water)
1 | CCCCNC(=O)NS(=O)(=O)c1ccc(C)cc1 [Bulk drug of tolbutamide, tolbutamide] | 89.4 | 89.4 |  | 
2 | CCCCNC(=O)NS(=O)(=O)c1ccc(C)cc1 [tolbutamide] |  |  | soluble in ethanol and chloroform | almost insoluble in the water
